Source: ChEMBL document CHEMBL1201862, “PubChem BioAssay data set” (2004)
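Dose response: 5 concentrations. Exposure: 48 h. Format: 96-well plates. Endpoint: linear interpolation; highest concentration if not reached. At the GI50, growth is halved.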 The source made the active and inactive calls. Cut-off read from the data, not from the text of the source: active = GI50 up to about 1.1 µM and inactive = higher.

Experiments:
Assay in all cases: NCI anticancer screen, dose series, 48 h
[1] = tested on: 786-0
[2] = tested on: A549
[3] = tested on: ACHN
[4] = tested on: CAKI-1
[5] = tested on: CCRF-CEM
[6] = tested on: COLO 205
[7] = tested on: DMS-114
[8] = tested on: DMS-273
[9] = tested on: EKVX
[10] = tested on: HCC 2998
[11] = tested on: HCT-116
[12] = tested on: HCT-15
[13] = tested on: HL-60
[14] = tested on: HOP-18
[15] = tested on: HOP-62
[16] = tested on: HOP-92
[17] = tested on: HT-29
[18] = tested on: IGROV-1
[19] = tested on: K562
[20] = tested on: KM-20L2
[21] = tested on: KM12
[22] = tested on: LXFL 529
[23] = tested on: M14
[24] = tested on: M19-MEL
[25] = tested on: MOLT-4
[26] = tested on: Malme-3M
[27] = tested on: NCI-H226
[28] = tested on: NCI-H23
[29] = tested on: NCI-H460
[30] = tested on: NCI-H522
[31] = tested on: OVCAR-3
[32] = tested on: OVCAR-4
[33] = tested on: OVCAR-5
[34] = tested on: OVCAR-8
[35] = tested on: RPMI-8226
[36] = tested on: RXF 393
[37] = tested on: SF-268
[38] = tested on: SF-295
[39] = tested on: SF-539
[40] = tested on: SK-MEL-28
[41] = tested on: SK-MEL-2
[42] = tested on: SK-MEL-5
[43] = tested on: SK-OV-3
[44] = tested on: SN12C
[45] = tested on: SNB-19
[46] = tested on: SNB-75
[47] = tested on: SNB-78
[48] = tested on: SR
[49] = tested on: SW-620
[50] = tested on: U-251
[51] = tested on: UACC-257
[52] = tested on: UACC-62
[53] = tested on: UO-31
[54] = tested on: DLD-1
[55] = tested on: TK-10
[56] = tested on: A498
[57] = tested on: LOX IMVI

COc1ccc(N2C(=O)[C@@H](N=[N+]=[N-])[C@@H]2[C@H]2COC(C)(C)O2)cc1
GI50 [1]: > 100 µM (inactive)
GI50 [2]: > 100 µM (inactive)
GI50 [3]: > 100 µM (inactive)
GI50 [4]: > 100 µM (inactive)
GI50 [5]: > 100 µM (inactive)
GI50 [6]: > 100 µM (inactive)
GI50 [7]: > 100 µM (inactive)
GI50 [8]: > 100 µM (inactive)
GI50 [9]: > 100 µM (inactive)
GI50 [10]: > 100 µM (inactive)
GI50 [11]: > 100 µM (inactive)
GI50 [12]: > 100 µM
GI50 [13]: > 100 µM (inactive)
GI50 [14]: > 100 µM (inactive)
GI50 [15]: > 100 µM (inactive)
GI50 [16]: > 100 µM (inactive)
GI50 [17]: > 100 µM (inactive)
GI50 [18]: > 100 µM (inactive)
GI50 [19]: > 100 µM (inactive)
GI50 [20]: > 100 µM (inactive)
GI50 [21]: > 100 µM (inactive)
GI50 [22]: > 100 µM (inactive)
GI50 [23]: > 100 µM (inactive)
GI50 [24]: > 100 µM (inactive)
GI50 [25]: > 100 µM (inactive)
GI50 [26]: > 100 µM (inactive)
GI50 [27]: > 100 µM (inactive)
GI50 [28]: > 100 µM (inactive)
GI50 [29]: > 100 µM (inactive)
GI50 [30]: > 100 µM (inactive)
GI50 [31]: > 100 µM (inactive)
GI50 [32]: > 100 µM (inactive)
GI50 [33]: > 100 µM (inactive)
GI50 [34]: > 100 µM (inactive)
GI50 [35]: > 100 µM (inactive)
GI50 [36]: > 100 µM (inactive)
GI50 [37]: > 100 µM (inactive)
GI50 [38]: > 100 µM (inactive)
GI50 [39]: > 100 µM (inactive)
GI50 [40]: > 100 µM (inactive)
GI50 [41]: > 100 µM (inactive)
GI50 [42]: > 100 µM (inactive)
GI50 [43]: > 100 µM (inactive)
GI50 [44]: > 100 µM (inactive)
GI50 [45]: > 100 µM (inactive)
GI50 [46]: > 100 µM (inactive)
GI50 [47]: > 100 µM (inactive)
GI50 [48]: > 100 µM (inactive)
GI50 [49]: > 100 µM (inactive)
GI50 [50]: > 100 µM (inactive)
GI50 [51]: > 100 µM (inactive)
GI50 [52]: 75 µM (inactive)
GI50 [53]: > 100 µM (inactive)

COc1cc(Cn2c3ccccc3c3cc(C)cc(OC)c32)cc2c1[nH]c1ccccc12
GI50 [1]: > 25 µM (inactive)
GI50 [6]: > 25 µM (inactive)
GI50 [54]: > 25 µM (inactive)
GI50 [7]: 20 µM (inactive)
GI50 [10]: > 25 µM (inactive)
GI50 [11]: > 25 µM (inactive)
GI50 [18]: > 25 µM (inactive)
GI50 [24]: > 25 µM (inactive)
GI50 [26]: > 25 µM (inactive)
GI50 [31]: 10.2 µM (inactive)
GI50 [33]: > 25 µM (inactive)
GI50 [34]: 10.5 µM (inactive)
GI50 [35]: > 25 µM (inactive)
GI50 [40]: > 25 µM (inactive)
GI50 [41]: > 25 µM (inactive)
GI50 [42]: > 25 µM (inactive)
GI50 [43]: > 25 µM (inactive)
GI50 [44]: > 25 µM (inactive)
GI50 [45]: > 25 µM (inactive)
GI50 [47]: 23.1 µM (inactive)
GI50 [55]: > 25 µM (inactive)
GI50 [50]: > 25 µM (inactive)
GI50 [53]: > 25 µM (inactive)

CCC12C=C(C(=O)OC)N3c4ccccc4C4CCN(CCC1)C2C43 (stereo unspecified)
GI50 [1]: 21.3 µM (inactive)
GI50 [56]: 66.2 µM (inactive)
GI50 [2]: > 100 µM (inactive)
GI50 [3]: 62.5 µM (inactive)
GI50 [4]: 35.6 µM (inactive)
GI50 [5]: > 100 µM (inactive)
GI50 [6]: 31.9 µM (inactive)
GI50 [54]: 66.7 µM (inactive)
GI50 [7]: 63 µM (inactive)
GI50 [8]: 59.6 µM (inactive)
GI50 [9]: > 100 µM (inactive)
GI50 [10]: 29.7 µM (inactive)
GI50 [11]: 68.7 µM (inactive)
GI50 [12]: 64.3 µM
GI50 [13]: 78.9 µM (inactive)
GI50 [14]: > 100 µM (inactive)
GI50 [15]: 38.9 µM (inactive)
GI50 [16]: 34.8 µM (inactive)
GI50 [17]: 32.1 µM (inactive)
GI50 [18]: > 100 µM (inactive)
GI50 [19]: 37.7 µM (inactive)
GI50 [20]: 19.1 µM (inactive)
GI50 [21]: 48.3 µM (inactive)
GI50 [57]: 59.4 µM (inactive)
GI50 [22]: 87.1 µM (inactive)
GI50 [23]: 33.4 µM (inactive)
GI50 [24]: 75.9 µM (inactive)
GI50 [25]: 66.8 µM (inactive)
GI50 [26]: 18.8 µM (inactive)
GI50 [27]: 25.3 µM (inactive)
GI50 [28]: 99.3 µM (inactive)
GI50 [30]: 75.7 µM (inactive)
GI50 [31]: > 100 µM (inactive)
GI50 [32]: 97.9 µM (inactive)
GI50 [33]: 40.9 µM (inactive)
GI50 [34]: > 100 µM (inactive)
GI50 [35]: 50.6 µM (inactive)
GI50 [36]: 53.2 µM (inactive)
GI50 [37]: > 100 µM (inactive)
GI50 [38]: 98.2 µM (inactive)
GI50 [39]: > 100 µM (inactive)
GI50 [40]: 95.7 µM (inactive)
GI50 [41]: > 100 µM (inactive)
GI50 [42]: 72.1 µM (inactive)
GI50 [43]: > 100 µM (inactive)
GI50 [44]: 83.8 µM (inactive)
GI50 [45]: 72.4 µM (inactive)
GI50 [46]: 30.2 µM (inactive)
GI50 [47]: > 100 µM (inactive)
GI50 [49]: 59.7 µM (inactive)
GI50 [55]: > 100 µM (inactive)
GI50 [50]: 82.4 µM (inactive)
GI50 [51]: 34.2 µM (inactive)
GI50 [52]: > 100 µM (inactive)
GI50 [53]: 77.3 µM (inactive)
